The test system of experiment [1] is CA-MRSA. In words: MIC (CLSI broth dilution), agent alone. It counts as cell-based, Staphylococcus aureus. The method, boiled down:
(§1)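 S. aureus isolates were tested by CLSI 2005 broth macrodilution in doubling dilutions of cation-adjusted Mueller-Hinton broth. Inoculum was about 5×10^5 CFU/ml, with 24 h incubation in ambient air. MIC was the lowest concentration inhibiting visible growth, with an MSSA and ATCC QC strains as controls.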
In general terms: In broth dilution the organism is exposed to a series of concentrations in liquid medium.

The test system of experiment [2] is HA-MRSA. In words: MIC (CLSI broth dilution), agent alone. It counts as cell-based, Staphylococcus aureus. The conditions noted are these: for PEP35 (MIC): peptide alone. The method, boiled down:
as §1

In experiment [3] the test system is MSSA. Nature of the experiment: MIC (CLSI broth dilution), agent alone. The class given is cell-based, Staphylococcus aureus. The note with it: for MIC: agent alone. The method, boiled down: as §1
Experiment [4] relates to VRSA. Nature of the experiment: MIC (CLSI broth dilution), agent alone. Also on record: unit not given beside the values. The class given is cell-based, Staphylococcus aureus. Here is the method: VISA (strains 92, 95 and 96), VRSA (strains 105 and 106) and E. coli (strain 69717) isolates were also tested. One MSSA was used as a control. All MICs were assessed using CLSI guidelines. Also assessed was the activity of cefazolin, ceftriazone, meropenem, and a piperacillin/tazobactam combination antibiotic. Minimum inhibitory concentration (MIC) is the lowest concentration of an antimicrobial that will inhibit the visible growth of a microorganism after incubation.
Antimicrobial Susceptibility Testing: A custom designed panel of antimicrobials was created. The panel included: PEP35, penicillin, piperacillin/tazobactam, cefazolin, ceftriaxone, meropenem, clarithromycin, clindamycin, gentamicin, amikacin, vancomycin, ciprofloxacin, levofloxacin, moxifloxacin, linezolid, trimethoprim/sulfamethoxazole and doxycycline. These agents were obtained as laboratory grade powders from their respective manufacturers. Stock solutions were prepared and dilutions made as described by the Clinical Laboratory Standards Institute (2005 CLSI). Following two subcultures from frozen stock the MICs of the antimicrobial agents for the isolates were determined by the CLSI 2005 approved broth macrodilution method. Briefly, test tubes containing doubling antibiotic dilutions (2 ml per tube) of cation adjusted Mueller-Hinton broth (eg. for Enterobacteriaceae) with or without lysed horse blood (2-5% V/V) [eg. for S. pneumoniae] were inoculated to achieve a final concentration of approximately 5×10^5 CFU/ml and incubated in ambient air for 24 hours prior to reading. Colony counts were performed periodically to confirm inocula. Quality control was performed every two weeks using a variety of ATCC QC organisms including; S. aureus 29213, E. faecalis 29212, E. coli 25922 and P. aeruginosa 27853. For all antimicrobials as well as PEP35, CLSI criteria were used.
One MSSA was used as a control. All MICs were assessed using CLSI guidelines.

For experiment [5], the system named is S. pneumoniae. In words: Checkerboard assay (FIC index).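 Further: each agent diluted from 0.03 to 4 times its MIC.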 The class given is cell-based, Streptococcus pneumoniae. The conditions noted are these: antibiotic combined with PEP35. How it is done:
The checkerboard assays were carried out as described by Eliopoulos and Moellering (Chapter 9) in Antibiotic in Laboratory Medicine, Lorian Ed. 1996 as well as Bonapace et al. Diagnostic Microbiology and Infectious Diseases 2002; 44:363-366 and Bonapace et al. Diagnostic Microbiology and Infectious Diseases 2000; 38:43-50. In brief, checkerboard assays were performed in 96 well microtitre trays using an 8-by-8 well configuration. […] 96-well custom designed microtitre plates contained 100 ul/well of cation adjusted Mueller-Hinton broth (eg. for Enterobacteriaceae) with or without lysed horse blood (2-5% V/V) [eg. for S. pneumoniae] and were inoculated to achieve a final concentration of approximately 5×10^5 CFU/ml and incubated in ambient air for 24 hours prior to reading. Colony counts were performed periodically to confirm inocula. Quality control was performed every two weeks using a variety of ATCC QC organisms including; S. pneumoniae 49619, S. aureus 29213, E. faecalis 29212, E. coli 25922 and P. aeruginosa 27853. For all antimicrobials as well as PEP35, CLSI criteria was used.
The fractional inhibitory concentration index (FIC index) was used to interpret synergy, antagonism or additivity/indifference. FIC index=FIC of drug A+FIC of drug B where:
The FIC of drug A and drug B is calculated as follows, FIC drug A=MIC of drug A in combination/MIC of drug A alone and FIC of drug B=MIC of drug B in combination/MIC of drug B alone. Synergy is defined as FIC index ≦0.5, additivity/indifference FIC >0.5-4 and antagonism FIC index >4.
Antimicrobials used included PEP35, cefazolin, ceftriaxone, vancomycin, linezolid, tigecycline and daptomycin versus Gram-positive cocci and PEP35, gentamicin, levofloxacin, piperacillin/tazobactam, meropenem and colistin (Polymyxin E) versus Gram-negative bacilli. These agents were obtained as laboratory grade powders from their respective manufacturers. Stock solutions were prepared and dilutions made as described by the Clinical Laboratory Standards Institute (2005 CLSI).
Organisms included Gram-positive cocci (2 strains of each): Methicillin-susceptible Staphylococcus aureus (MSSA), community-associated (CA) and healthcare-associated (HA) methicillin-resistant Staphylococcus aureus (MRSA), vancomycin-intermediate Staphylococcus aureus (VISA), vancomycin-resistant Staphylococcus aureus (VRSA), methicillin-resistant Staphylococcus epidermidis (MRSE), Streptococcus pyogenes, Streptococcus agalactiae, Streptococcus pneumoniae, Enterococcus faecalis, Enterococcus faecium and vancomycin-resistant enterococcus (VRE). Gram-negative bacilli tested (2 strains of each) included: E. coli, Pseudomonas aeruginosa, Klebsiella pneumoniae, K. oxytoca, Enterobacter cloacae, P. mirabilis and Stenotrophomonas maltophilia. MIC testing, following two subcultures from frozen stock were determined by the CLSI 2005 approved broth microdilution method.

[6] abbreviates: CA-MRSA 69615 (USA400), agent alone, in µg/mL.
The mark [7] stands for this setting: HA-MRSA 70798 (USA100/800), agent alone, in µg/mL.
Where [8] appears, read: HA-MRSA 77090 (USA100/800), agent alone, in µg/mL.
The mark [9] stands for this setting: CA-MRSA 70857 (USA400), agent alone, in µg/mL.
Where [10] appears, read: S. pneumoniae-Pen I 72302 (MHB).
Where [11] appears, read: S. pneumoniae-Pen I 78663 (MHB).
Where [12] appears, read: S. pneumoniae-Pen R 76065 (MHB).
Where [13] appears, read: S. pneumoniae-Pen R 78519 (MHB).
The mark [14] stands for this setting: S. pneumoniae-Pen S 70400 (MHB).
Where [15] appears, read: S. pneumoniae-Pen S 71263 (MHB).
[16] abbreviates: HA-MRSA 77098 (USA100/800), agent alone.

Several values for one entry are separate records, joined by “and”; a condition that tells them apart may be missing. Identical values can stand only once.

The values below come from patent publication US9751919B2, “Antimicrobial compositions comprising a hyaluronic acid binding peptide and a β-lactam antibiotic” (priority 2012, dated 2017).

Turning to “LKQKIKHVVKLKVVVKLRSQLVKRKQN (listed as Mus sp.) [PEP35]”, the MIC was 512 in experiment [1] (setting [6]); 512 µg/mL in experiment [1] (CA-MRSA (CMRSA7/USA400/MW2) isolates, one per table line, agent alone); 512 in experiment [2] (setting [7]); 256 and 512 in experiment [2] (setting [8]); 128 and 256 in experiment [3] (MSSA 79333, in µg/mL); 512 µg/mL in experiment [3] (S. aureus control). In addition, the MIC in experiment [4] (VRSA 105, in µg/mL) was 128 and 64; in experiment [4] (VRSA 106) it was 128 and 128/128/128. The “PEP35 (MIC)” value in experiment [2] (HA-MRSA (CMRSA1/USA600)) was determined as 256 µg/mL; in experiment [2] (HA-MRSA (CMRSA5/USA500)), 512 µg/mL; in experiment [2] (HA-MRSA (CMRSA8)) it was 1024 µg/mL; in experiment [3] (S. aureus (printed without strain; control row), peptide alone), 1024 µg/mL.
Turning to “KKKKKLQLQLNLIKKKVQVSVVVVRRH (Reordered human peptide sequence) [Scrambled PEP35]”, the MIC amounted to 256 in experiment [1] (setting [6]); 256 in experiment [1] (setting [9]); 256 in experiment [2] (setting [7]); 512 in experiment [2] (setting [8]); 64 in experiment [3] (MSSA 79333, in µg/mL); 64 in experiment [4] (VRSA 105, in µg/mL). Also, in experiment [4] (VRSA 106, in µg/mL), the MIC worked out at 128.
For `CC(=O)NC[C@H]1CN(c2ccc(N3CCOCC3)c(F)c2)C(=O)O1` [Linezolid, linezolid], the “Avg ΣFIC (range)” value in experiment [5] (setting [10]) was 0.86 (0.56-1.12); in experiment [5] (setting [11]), 1.05 (0.75-1.25); in experiment [5] (setting [12]), 0.74 (0.53-1.12); in experiment [5] (setting [13]) it was 0.92 (0.75-1.12); in experiment [5] (setting [14]), 0.63 (0.5-1.06); in experiment [5] (setting [15]) it was 0.92 (0.62-1.12).
For `CO/N=C(\C(=O)N[C@@H]1C(=O)N2C(C(=O)O)=C(CSc3nc(=O)c(=O)[nH]n3C)CS[C@H]12)c1csc(N)n1` [Ceftriaxone], the MIC is 256 and 512 in experiment [1] (setting [6]); 128 and 64 in experiment [1] (CA-MRSA 69615 (USA400), agent alone, listed as CEFTRIAXONE, in µg/mL); 512 in experiment [1] (CA-MRSA 69615 (USA400)^a row, antibiotic alone, in µg/mL); 256 in experiment [1] (CA-MRSA 69615 (USA400)^b row, antibiotic alone, in µg/mL); 256 and 128 in experiment [1] (setting [9]); 2048 in experiment [2] (setting [7]). Moreover, the MIC in experiment [2] (HA-MRSA 77090 (USA100/800), agent alone) is 512 and 1024/1024; in experiment [2] (HA-MRSA 77090 (USA100/800)^a row, antibiotic alone, in µg/mL), 512; in experiment [2] (HA-MRSA 77090 (USA100/800)^b row, antibiotic alone, in µg/mL), 512; in experiment [2] (setting [16]), 4096/4096; in experiment [3] (MSSA 79333) it was 8 and 4/4; in experiment [3] (MSSA 79333, listed as CEFTRIAXONE), 4/4. The MIC in experiment [4] (VRSA 105) is 2048 and 1024/1024; in experiment [4] (VRSA 106), 1024 and 2048/2048; in experiment [4] (VRSA 106, listed as CEFTRIAXONE), 1024/1024. Also, the “Avg ΣFIC (range)” value in experiment [5] (setting [10]) was 1.05 (0.75-1.25); in experiment [5] (setting [11]) it was 1.1 (1.0-1.25); in experiment [5] (setting [12]) it was 1.21 (1.03-1.5); in experiment [5] (setting [13]) it was 1.05 (0.75-1.25); in experiment [5] (setting [14]), 0.99 (0.62-1.06); in experiment [5] (setting [15]), 0.91 (0.62-1.12).
As to piperacillin/tazobactam, the MIC is 32 in experiment [1] (setting [6]); 32 in experiment [1] (setting [9]); 4 in experiment [2] (setting [7]); 16 in experiment [2] (setting [8]); “≦1” in experiment [3] (MSSA 79333); 64 in experiment [4] (VRSA 105, in µg/mL). Moreover, in experiment [4] (VRSA 106, in µg/mL), the MIC is 64.
For the compound `CCCCCCCCCC(=O)N[C@@H](Cc1c[nH]c2ccccc12)C(=O)N[C@H](CC(N)=O)C(=O)N[C@@H](CC(=O)O)C(=O)N[C@@H]1C(=O)NCC(=O)N[C@@H](CCCN)C(=O)N[C@@H](CC(=O)O)C(=O)N[C@H](C)C(=O)N[C@@H](CC(=O)O)C(=O)NCC(=O)N[C@H](CO)C(=O)N[C@@H]([C@H](C)CC(=O)O)C(=O)N[C@@H](CC(=O)c2ccccc2N)C(=O)O[C@@H]1C` [Daptomycin, daptomycin], the “Avg ΣFIC (range)” value in experiment [5] (setting [10]) is listed as 0.99 (0.62-1.25); in experiment [5] (setting [11]), 1.19 (1.03-1.5); in experiment [5] (setting [12]) it was 1.09 (0.56-1.5); in experiment [5] (setting [13]), 1.19 (1.03-1.5); in experiment [5] (setting [14]) it was 1.21 (1.03-1.5); in experiment [5] (setting [15]), 1.39 (1.03-2.5).
On to `C[C@@H](O)[C@H]1C(=O)N2C(C(=O)O)=C(S[C@@H]3CN[C@H](C(=O)N(C)C)C3)[C@H](C)[C@H]12` [Meropenem], for which the MIC in experiment [1] (CA-MRSA 70857 (USA400), agent alone) was 2 and 4/4; in experiment [2] (setting [7]), 64; in experiment [2] (setting [16]), 64/64; in experiment [4] (VRSA 105, in µg/mL), 32 and 16; in experiment [4] (VRSA 106), 16 and 16/16.
Turning to `CN(C)c1cc(NC(=O)CNC(C)(C)C)c(O)c2c1C[C@H]1C[C@H]3[C@H](N(C)C)C(O)=C(C(N)=O)C(=O)[C@@]3(O)C(O)=C1C2=O` [Tigecycline, tigecycline], the “Avg ΣFIC (range)” value in experiment [5] (setting [10]) is reported as 0.68 (0.53-1.03); in experiment [5] (setting [11]), 1.0 (0.56-1.12); in experiment [5] (setting [12]) it was 0.91 (0.62-1.12); in experiment [5] (setting [13]) it was 0.98 (0.75-1.12); in experiment [5] (setting [14]), 0.91 (0.62-1.12); in experiment [5] (setting [15]), 0.92 (0.56-1.25).
